The values that follow come from patent US20260200897A1, “4-((5-(3-(4-(PYRIDIN-2-YL)CYCLOPENTYL)-1H-PYRAZOL-3-YL)AMINO)-BENZENESULFONAMIDE DERIVATIVES AND SIMILAR COMPOUNDS AS CDK INHIBITORS FOR THE TREATMENT OF CANCER” (BeOne Medicines I GmbH, priority 2023, published 2026).

pIC50: −log10 of the molar value.

In one assay the target is CDK2/Cyclin E1 (Homo sapiens, UniProt P24941). Briefly: CDK2/Cyclin E1 TR-FRET biochemical assay, 0.060 mM ATP. Particulars: 0.15 μM Rb (Ser780)-biotin substrate, 120 min reaction, Table 1. In general terms: Time-resolved FRET reads energy transfer from a long-lived donor to a nearby acceptor.
For the next assay, the target named is CDK1/Cyclin B1 (Homo sapiens, UniProt P06493). The assay is described as follows: CDK1/Cyclin B1 TR-FRET biochemical assay, 0.015 mM ATP. Particulars: 0.15 μM Rb (Ser780)-biotin substrate, 120 min reaction, Table 1.
CDK1/Cyclin B1, sequence (P06493 whole entry): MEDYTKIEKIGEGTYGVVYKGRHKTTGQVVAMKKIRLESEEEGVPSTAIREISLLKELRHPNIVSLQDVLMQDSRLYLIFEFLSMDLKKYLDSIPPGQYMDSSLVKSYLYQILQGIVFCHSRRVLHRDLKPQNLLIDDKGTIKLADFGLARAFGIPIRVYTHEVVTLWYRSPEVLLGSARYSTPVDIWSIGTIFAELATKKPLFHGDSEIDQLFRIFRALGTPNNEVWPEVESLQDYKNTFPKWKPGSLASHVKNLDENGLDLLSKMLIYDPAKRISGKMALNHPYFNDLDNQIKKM
CDK1/Cyclin B1, sequence (P14635 whole entry partner): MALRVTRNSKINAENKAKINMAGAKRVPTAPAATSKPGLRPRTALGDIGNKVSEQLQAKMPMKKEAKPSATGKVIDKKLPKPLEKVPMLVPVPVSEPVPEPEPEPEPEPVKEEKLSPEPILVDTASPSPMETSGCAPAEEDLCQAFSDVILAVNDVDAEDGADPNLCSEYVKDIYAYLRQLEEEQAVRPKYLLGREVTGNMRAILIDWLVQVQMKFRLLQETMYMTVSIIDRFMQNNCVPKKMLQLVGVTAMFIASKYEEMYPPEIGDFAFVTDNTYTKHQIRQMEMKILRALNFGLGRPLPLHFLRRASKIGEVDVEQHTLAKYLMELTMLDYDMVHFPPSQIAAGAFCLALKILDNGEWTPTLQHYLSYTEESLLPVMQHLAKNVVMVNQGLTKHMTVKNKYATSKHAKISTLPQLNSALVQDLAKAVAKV

The pIC50 is the IC50 on a negative log10 scale, so that one unit is a factor of ten. A lower pIC50 goes with a large IC50. On to `CCOC(=O)c1cn[nH]c1O[C@H]1CC[C@@H](c2cc(Nc3ccc4c(c3F)CNS4(=O)=O)n[nH]2)C1` (relative stereo) [Example 68, cis-ethyl 5-((3-(3-((4-fluoro-1,1-dioxido-2,3-dihydrobenzo[d]isothiazol-5-yl)amino)-1H-pyrazol-5-yl)cyclopentyl)oxy)-1H-pyrazole-4-carboxylate], for which the pIC50 at CDK2/Cyclin E1 is 7.92; on CDK1/Cyclin B1 it was 6.70.

As to `O=S1(=O)NCc2c1ccc(Nc1cc([C@H]3CC[C@@H](Oc4cc(C(F)(F)F)n[nH]4)C3)[nH]n1)c2F` (relative stereo) [Example 69, cis-4-fluoro-5-((5-(3-((3-(trifluoromethyl)-1H-pyrazol-5-yl)oxy)cyclopentyl)-1H-pyrazol-3-yl)amino)-2,3-dihydrobenzo[d]isothiazole 1,1-dioxide], the pIC50 was 6.08 against CDK2/Cyclin E1 and less than 5.00 on CDK1/Cyclin B1.

In the case of `O=S1(=O)NCc2c1ccc(Nc1cc([C@H]3CC[C@@H](Oc4ccnn4-c4ccccc4)C3)[nH]n1)c2F` (relative stereo) [Example 70, (cis)-4-fluoro-5-((5-(3-((1-phenyl-1H-pyrazol-5-yl)oxy)cyclopentyl)-1H-pyrazol-3-yl)amino)-2,3-dihydrobenzo[d]isothiazole 1,1-dioxide], the pIC50 against CDK2/Cyclin E1 and against CDK1/Cyclin B1 was less than 5.00 throughout.

Consider `CC(C)(C)c1cc(O[C@@H]2CC[C@H](c3cc(Nc4ccc5c(c4F)CNS5(=O)=O)n[nH]3)C2)[nH]n1` (relative stereo) [Example 71, cis-5-((5-(3-((3-(tert-butyl)-1H-pyrazol-5-yl)oxy)cyclopentyl)-1H-pyrazol-3-yl)amino)-4-fluoro-2,3-dihydrobenzo[d]isothiazole 1,1-dioxide], for which the results for the pIC50 on CDK2/Cyclin E1 and against CDK1/Cyclin B1 were 6.41 and 5.11, respectively.

`CC(C)c1n[nH]cc1O[C@@H]1CC[C@H](c2cc(Nc3ccc4c(c3F)CNS4(=O)=O)n[nH]2)C1` (relative stereo) [Example 73, cis-4-fluoro-5-((5-(3-((3-isopropyl-1H-pyrazol-4-yl)oxy)cyclopentyl)-1H-pyrazol-3-yl)amino)-2,3-dihydrobenzo[d]isothiazole 1,1-dioxide]: the values for the pIC50 at CDK2/Cyclin E1 and against CDK1/Cyclin B1 were 7.92 and 6.35, respectively.

Regarding `Cc1n[nH]c(C)c1O[C@@H]1CC[C@H](c2cc(Nc3ccc4c(c3F)CNS4(=O)=O)n[nH]2)C1` (relative stereo) [Example 75, cis-5-((5-(3-((3,5-dimethyl-1H-pyrazol-4-yl)oxy)cyclopentyl)-1H-pyrazol-3-yl)amino)-4-fluoro-2,3-dihydrobenzo[d]isothiazole 1,1-dioxide], the pIC50 was 7.28 against CDK2/Cyclin E1 and 5.97 at CDK1/Cyclin B1.

Take `O=S1(=O)NCc2c1ccc(Nc1cc([C@H]3CC[C@@H](Oc4cn[nH]c4)C3)[nH]n1)c2F` (relative stereo) [Example 76, cis-5-((5-(3-((1H-pyrazol-4-yl)oxy)cyclopentyl)-1H-pyrazol-3-yl)amino)-4-fluoro-2,3-dihydrobenzo[d]isothiazole 1,1-dioxide]: the pIC50 against CDK2/Cyclin E1 is 7.28; against CDK1/Cyclin B1, 5.79.

On to `Cn1cc(O[C@@H]2CC[C@H](c3cc(Nc4ccc5c(c4F)CNS5(=O)=O)n[nH]3)C2)cn1` (relative stereo) [Example 77, cis-4-fluoro-5-((5-(3-((1-methyl-1H-pyrazol-4-yl)oxy)cyclopentyl)-1H-pyrazol-3-yl)amino)-2,3-dihydrobenzo[d]isothiazole 1,1-dioxide], for which the pIC50 was 6.28 against CDK2/Cyclin E1 and less than 5.00 against CDK1/Cyclin B1.

As for `CC(C)n1cc(O[C@@H]2CC[C@H](c3cc(Nc4ccc5c(c4F)CNS5(=O)=O)n[nH]3)C2)cn1` (relative stereo) [Example 78, cis-4-fluoro-5-((5-(3-((1-isopropyl-1H-pyrazol-4-yl)oxy)cyclopentyl)-1H-pyrazol-3-yl)amino)-2,3-dihydrobenzo[d]isothiazole 1,1-dioxide], the pIC50 against CDK2/Cyclin E1 was 6.51; on CDK1/Cyclin B1, less than 5.00.

Regarding `Cc1n[nH]cc1O[C@@H]1CC[C@H](c2cc(Nc3ccc4c(c3F)CNS4(=O)=O)n[nH]2)C1` (relative stereo) [Example 79, cis-4-fluoro-5-((5-(3-((3-methyl-1H-pyrazol-4-yl)oxy)cyclopentyl)-1H-pyrazol-3-yl)amino)-2,3-dihydrobenzo[d]isothiazole 1,1-dioxide], the pIC50 at CDK2/Cyclin E1 was 8.00; against CDK1/Cyclin B1, 6.31.

`CC(C)N1CCN([C@H]2CC[C@@H](c3cc(Nc4ccc5c(c4F)CNS5(=O)=O)n[nH]3)C2)C1=O` (relative stereo) [Example 81, cis-1-(3-(3-((4-fluoro-1,1-dioxido-2,3-dihydrobenzo[d]isothiazol-5-yl)amino)-1H-pyrazol-5-yl)cyclopentyl)-3-isopropylimidazolidin-2-one]: the pIC50 at CDK2/Cyclin E1 was 5.93; against CDK1/Cyclin B1, less than 5.00.

Turning to `CC(C)N1CC(=O)N([C@H]2CC[C@@H](c3cc(Nc4ccc5c(c4F)CNS5(=O)=O)n[nH]3)C2)C1=O` (relative stereo) [Example 82, cis-3-(3-(3-((4-fluoro-1,1-dioxido-2,3-dihydrobenzo[d]isothiazol-5-yl)amino)-1H-pyrazol-5-yl)cyclopentyl)-1-isopropylimidazolidine-2,4-dione], the pIC50 against CDK2/Cyclin E1 was 6.22; against CDK1/Cyclin B1 it was less than 5.00.

As to `CC(C)n1ccn([C@H]2CC[C@@H](c3cc(Nc4ccc5c(c4F)CNS5(=O)=O)n[nH]3)C2)c1=O` (relative stereo) [Example 83, cis-1-(3-(3-((4-fluoro-1,1-dioxido-2,3-dihydrobenzo[d]isothiazol-5-yl)amino)-1H-pyrazol-5-yl)cyclopentyl)-3-isopropyl-1,3-dihydro-2H-imidazol-2-one], the pIC50 against CDK2/Cyclin E1 is 6.15; against CDK1/Cyclin B1 it was less than 5.00.

Regarding `CC1(C)CN([C@H]2CC[C@@H](c3cc(Nc4ccc5c(c4F)CNS5(=O)=O)n[nH]3)C2)C(=O)N1` (relative stereo) [Example 85, cis-1-(3-(3-((4-fluoro-1,1-dioxido-2,3-dihydrobenzo[d]isothiazol-5-yl)amino)-1H-pyrazol-5-yl)cyclopentyl)-4,4-dimethylimidazolidin-2-one], the results for the pIC50 on CDK2/Cyclin E1 and at CDK1/Cyclin B1 were 7.51 and 6.54, respectively.

On to `CN1C(=O)N([C@H]2CC[C@@H](c3cc(Nc4ccc5c(c4F)CNS5(=O)=O)n[nH]3)C2)C(=O)C1(C)C` (relative stereo) [Example 86, cis-3-(3-(3-((4-fluoro-1,1-dioxido-2,3-dihydrobenzo[d]isothiazol-5-yl)amino)-1H-pyrazol-5-yl)cyclopentyl)-1,5,5-trimethylimidazolidine-2,4-dione], for which the pIC50 against CDK2/Cyclin E1 was 7.14; on CDK1/Cyclin B1, 5.87.

As to `CC1(C)CC(=O)N([C@H]2CC[C@@H](c3cc(Nc4ccc5c(c4F)CNS5(=O)=O)n[nH]3)C2)C1=O` (relative stereo) [Example 87, cis-1-(3-(3-((4-fluoro-1,1-dioxido-2,3-dihydrobenzo[d]isothiazol-5-yl)amino)-1H-pyrazol-5-yl)cyclopentyl)-3,3-dimethylpyrrolidine-2,5-dione], the pIC50 against CDK2/Cyclin E1 is 6.64; against CDK1/Cyclin B1, 5.49.

As for `CC(C)(C)c1cnc([C@@H]2CC[C@H](c3cc(Nc4ccc5c(c4)CS(=O)(=O)N5)n[nH]3)C2)o1` (relative stereo) [Example 135, cis-5-((5-(3-(5-(tert-butyl)oxazol-2-yl)cyclopentyl)-1H-pyrazol-3-yl)amino)-1,3-dihydrobenzo[c]isothiazole 2,2-dioxide], the pIC50 at CDK2/Cyclin E1 is 8.34; on CDK1/Cyclin B1 it was 7.96.

`CC(C)(C)c1cnc([C@@H]2CC[C@H](c3cc(Nc4ccc5c(c4F)CS(=O)(=O)N5)n[nH]3)C2)o1` (relative stereo) [Example 145, cis-5-((5-(3-(5-(tert-butyl)oxazol-2-yl)cyclopentyl)-1H-pyrazol-3-yl)amino)-4-fluoro-1,3-dihydrobenzo[c]isothiazole 2,2-dioxide]: the pIC50 against CDK2/Cyclin E1 is 8.48; on CDK1/Cyclin B1, 7.96.

For the compound `CC(C)(C)c1n[nH]cc1OC1CCC(c2cc(Nc3ccc4c(c3F)CNS4(=O)=O)n[nH]2)C1` (single isomer, unassigned) [Example 74a, cis-5-((5-(3-((3-(tert-butyl)-1H-pyrazol-4-yl)oxy)cyclopentyl)-1H-pyrazol-3-yl)amino)-4-fluoro-2,3-dihydrobenzo[d]isothiazole 1,1-dioxide], the pIC50 against CDK2/Cyclin E1 was 8.31; against CDK1/Cyclin B1 it was 6.52.

As to `CC(C)(C)c1n[nH]cc1OC1CCC(c2cc(Nc3ccc4c(c3F)CNS4(=O)=O)n[nH]2)C1` (single isomer, unassigned) [Example 74b, cis-5-((5-(3-((3-(tert-butyl)-1H-pyrazol-4-yl)oxy)cyclopentyl)-1H-pyrazol-3-yl)amino)-4-fluoro-2,3-dihydrobenzo[d]isothiazole 1,1-dioxide], the pIC50 was 7.74 against CDK2/Cyclin E1 and 6.17 against CDK1/Cyclin B1.

As for `CC1(C)NC(=O)N(C2CCC(c3cc(Nc4ccc5c(c4F)CNS5(=O)=O)n[nH]3)C2)C1=O` (single isomer, unassigned) [Example 84a, cis-3-(3-(3-((4-fluoro-1,1-dioxido-2,3-dihydrobenzo[d]isothiazol-5-yl)amino)-1H-pyrazol-5-yl)cyclopentyl)-5,5-dimethylimidazolidine-2,4-dione], the values for the pIC50 at CDK2/Cyclin E1 and on CDK1/Cyclin B1 were 8.12 and 6.63, respectively.

Take `CC1(C)NC(=O)N(C2CCC(c3cc(Nc4ccc5c(c4F)CNS5(=O)=O)n[nH]3)C2)C1=O` (single isomer, unassigned) [Example 84b, cis-3-(3-(3-((4-fluoro-1,1-dioxido-2,3-dihydrobenzo[d]isothiazol-5-yl)amino)-1H-pyrazol-5-yl)cyclopentyl)-5,5-dimethylimidazolidine-2,4-dione]: the pIC50 against CDK2/Cyclin E1 was 7.85; against CDK1/Cyclin B1 it was 6.85.

Take `CC(C)(C)c1cnc(C2CCC(c3cc(Nc4ccc5c(c4F)CNS5(=O)=O)n[nH]3)C2)o1` (single isomer, unassigned) [Example 91a, cis-5-((5-(3-(5-(tert-butyl)oxazol-2-yl)cyclopentyl)-1H-pyrazol-3-yl)amino)-4-fluoro-2,3-dihydrobenzo[d]isothiazole 1,1-dioxide]: the pIC50 is 8.89 against CDK2/Cyclin E1 and 7.28 against CDK1/Cyclin B1.
